Measured values: publication PMC3185947 (British Journal of Cancer, 2011)
Read-outs that look alike come from different tables or passages of the source. Marks after values point to notes of the source that are not given here.

How the values were obtained:
[1] = test system: patients with previously treated advanced NSCLC; test: Erlotinib-related toxicities (worst grade per patient), NCI CTC Version 2.0; type: in vivo, human
[2] = test system: patients with previously treated advanced NSCLC
Experimental: In the initial stage, we assessed the feasibility of intrapatient dose escalation from 150 mg per day to a maximal level of tolerable skin toxicity, which was defined as the TR. This objective was determined to be feasible if patients developed a TR in the absence of non-cutaneous dose-limiting toxicity (DLT). […] Skin toxicity was graded according to the following scale that was based on patient tolerability:
In the absence of both a TR and non-cutaneous DLT, the dose was increased in each patient to 200 mg per day, and then in 25 mg per day increments every 14 days. […] Toxicities were graded according to the National Cancer Institute Common Toxicity Criteria (NCI CTC), Version 2.0, except for skin toxicity.
Doses were reduced in 25 mg per day decrements for toxicity. The initial systemic intervention for symptomatic skin toxicity was minocycline 100–150 mg twice daily for at least 7 days, and the initiation of treatment with minocycline for symptomatic rash was at the discretion of the investigator.

[3] = test system: previously treated patients with non-small cell lung cancer (NSCLC); settings: cited from earlier work; for Median survival: ref Wacker et al, 2007
[4] = test system: patients receiving erlotinib 150 mg per day; design: method as in earlier work; settings: ref Shepherd et al, 2005, Perez-Soler and Van Cutsem, 2007; cited from earlier work
[5] = erlotinib 225–275 mg (N=18), non-cutaneous dose limiting toxicity reported

For C#Cc1cccc(Nc2ncnc3cc(OCCOC)c(OCCOC)cc23)c1 [erlotinib], the “Fatigue, grade 3–4” value ([1]; erlotinib 175–200 mg (N=13), non-cutaneous dose limiting toxicity reported) was 1 (8) ^a n (%), the “Alopecia, grade 3–4” value ([1]; erlotinib 225–275 mg (N=18)) was 0 (0) n (%) and the “Alopecia, grade Any” value ([1]; erlotinib 225–275 mg (N=18)) was 4 (22) n (%). The “Anorexia, grade Any” value ([1]; erlotinib 225–275 mg (N=18)) was 6 (33) n (%), the “Creatinine, grade 3–4” value ([1]; erlotinib 225–275 mg (N=18)) was 0 (0) n (%) and the “Creatinine, grade Any” value ([1]; erlotinib 225–275 mg (N=18)) was 0 (0) n (%). The “Diarrhea, grade 3–4” value ([1]; erlotinib 225–275 mg (N=18)) was 1 (6) n (%), the “Diarrhea, grade Any” value ([1]; erlotinib 225–275 mg (N=18)) was 13 (72) n (%) and the “Epistaxis, grade 3–4” value ([1]; erlotinib 225–275 mg (N=18)) was 0 (0) n (%). For the same compound, the “Epistaxis, grade Any” value ([1]; erlotinib 225–275 mg (N=18)) was 3 (17) n (%), the “Fatigue, grade Any” value ([1]; erlotinib 225–275 mg (N=18)) was 6 (33) n (%) and the “Headache, grade Any” value ([1]; erlotinib 225–275 mg (N=18)) was 1 (6) n (%). The “Nausea, grade 3–4” value ([1]; erlotinib 225–275 mg (N=18)) was 0 (0) n (%), the “Nausea, grade Any” value ([1]; erlotinib 225–275 mg (N=18)) was 9 (50) n (%) and the “Paronychia, grade 3–4” value ([1]; erlotinib 225–275 mg (N=18)) was 0 (0) n (%). The “Paronychia, grade Any” value ([1]; erlotinib 225–275 mg (N=18)) was 3 (17) n (%), the “Skin fissures, grade 3–4” value ([1]; erlotinib 225–275 mg (N=18)) was 1 (6) n (%) and the “Skin fissures, grade Any” value ([1]; erlotinib 225–275 mg (N=18)) was 2 (11) n (%). The “Stomatitis, grade 3–4” value ([1]; erlotinib 225–275 mg (N=18)) was 0 (0) n (%), the “Stomatitis, grade Any” value ([1]; erlotinib 225–275 mg (N=18)) was 6 (33) n (%) and the “Vomiting, grade 3–4” value ([1]; erlotinib 225–275 mg (N=18)) was 0 (0) n (%). The “Vomiting, grade Any” value ([1]; erlotinib 225–275 mg (N=18)) was 5 (28) n (%), the “Anorexia, grade 3–4” value [1, 5] was 1 (6) ^a n (%) and the “Fatigue, grade 3–4” value [1, 5] was 2 (11) ^a n (%). The “Headache, grade 3–4” value [1, 5] was 1 (6) ^a n (%), the “Alopecia, grade 3–4” value ([1]; erlotinib ⩾300 mg (N=7)) was 0 (0) n (%) and the “Alopecia, grade Any” value ([1]; erlotinib ⩾300 mg (N=7)) was 2 (29) n (%). The “Anorexia, grade 3–4” value ([1]; erlotinib ⩾300 mg (N=7)) was 0 (0) n (%), the “Anorexia, grade Any” value ([1]; erlotinib ⩾300 mg (N=7)) was 3 (43) n (%) and the “Creatinine, grade 3–4” value ([1]; erlotinib ⩾300 mg (N=7)) was 0 (0) n (%). The “Creatinine, grade Any” value ([1]; erlotinib ⩾300 mg (N=7)) was 0 (0) n (%), the “Diarrhea, grade 3–4” value ([1]; erlotinib ⩾300 mg (N=7)) was 0 (0) n (%) and the “Diarrhea, grade Any” value ([1]; erlotinib ⩾300 mg (N=7)) was 7 (100) n (%). For the same compound, the “Epistaxis, grade 3–4” value ([1]; erlotinib ⩾300 mg (N=7)) was 0 (0) n (%), the “Epistaxis, grade Any” value ([1]; erlotinib ⩾300 mg (N=7)) was 2 (29) n (%) and the “Fatigue, grade 3–4” value ([1]; erlotinib ⩾300 mg (N=7)) was 0 (0) n (%). For the same compound, the “Fatigue, grade Any” value ([1]; erlotinib ⩾300 mg (N=7)) was 4 (57) n (%), the “Headache, grade 3–4” value ([1]; erlotinib ⩾300 mg (N=7)) was 0 (0) n (%) and the “Headache, grade Any” value ([1]; erlotinib ⩾300 mg (N=7)) was 0 (0) n (%). For the same compound, the “Nausea, grade 3–4” value ([1]; erlotinib ⩾300 mg (N=7)) was 0 (0) n (%), the “Nausea, grade Any” value ([1]; erlotinib ⩾300 mg (N=7)) was 5 (71) n (%) and the “Paronychia, grade Any” value ([1]; erlotinib ⩾300 mg (N=7)) was 2 (29) n (%). The “Skin fissures, grade 3–4” value ([1]; erlotinib ⩾300 mg (N=7)) was 0 (0) n (%), the “Skin fissures, grade Any” value ([1]; erlotinib ⩾300 mg (N=7)) was 2 (29) n (%) and the “Stomatitis, grade 3–4” value ([1]; erlotinib ⩾300 mg (N=7)) was 0 (0) n (%). For the same compound, the “Stomatitis, grade Any” value ([1]; erlotinib ⩾300 mg (N=7)) was 1 (14) n (%), the “Vomiting, grade 3–4” value ([1]; erlotinib ⩾300 mg (N=7)) was 0 (0) n (%) and the “Vomiting, grade Any” value ([1]; erlotinib ⩾300 mg (N=7)) was 3 (43) n (%). For the same compound, the “Paronychia, grade 3–4” value ([1]; erlotinib ⩾300 mg (N=7), non-cutaneous dose limiting toxicity reported) was 1 (14) ^a n (%), the “Non-cutaneous DLT: grade 3 anorexia” value ([1]; human, in vivo) was “one” and the “Non-cutaneous DLT: grade 3 creatinine elevation” value ([1]; human, in vivo) was “one”. For the same compound, the “Non-cutaneous DLT: grade 3 fatigue” value ([1]; human, in vivo) was “three”, the “Non-cutaneous DLT: grade 3 headache” value ([1]; human, in vivo) was “one” and the “Non-cutaneous DLT: grade 3 paronychia” value ([1]; human, in vivo) was “one”. For the same compound, the “Patients who discontinued treatment due to protracted grade 3 anorexia and grade 2 nausea” value ([1]; human, in vivo) was “One”, the “Patients who experienced non-cutaneous DLT” value ([1]; of 42 patients) was “Seven” and the “Patients with pain associated with skin toxicity” value ([2]; 10 of 42 patients) was 24%. For the same compound, the “Patients with urticaria as dominant feature of rash” value ([2]; 11 of 42 patients) was 26%, the “Patients in whom the rash resembled rosacea” value ([2]; 12 of 42 patients) was 29% and the “Patients with desquamation as dominant feature of rash” value ([2]; 16 of 42 patients) was 38%. The “Patients with a TR who developed it at the initial 150 mg per day dose level” value ([2]; 19 of 24 patients with TR) was 79%, the “Patients who developed a target rash (TR)” value ([2]; 24 of 42 patients, TR = grade 2 tolerable rash requiring minocycline) was 57% and the “Patients with pruritus associated with skin toxicity” value ([2]; 28 of 42 patients) was 67%. For the same compound, the “Patients who developed skin toxicity” value ([2]; 41 of 42 patients) was 98%, the “Patients discontinued from the study due to skin toxicity” value ([2]; 42 patients) was “No patient” and the “Initial patients (first stage) who developed a TR” value ([2]; first stage of the study) was 10 of the 11 initial patients. The “Patients with a TR who experienced it only after dose escalation” value ([2]; five of 24 patients with TR) was 21%, the “Patients who experienced a grade 3 rash” value ([2]; of 42 patients) was “Six” and the “Dosing range above which erlotinib doses could not be increased in most patients” value ([2]; principally due to intolerable skin toxicity despite supportive measures) was 250–300 mg per day. The “Patients with a TR who developed it following escalation to 200 mg per day” value ([2]; three of 24 patients with TR) was 13%, the “Patients with a TR who developed it following escalation to 225 mg per day” value ([2]; two of 24 patients with TR) was 8% and the “Median PFS” value ([3]; BR.21 study, 95% CI: 1.9–2.9 months, ref Shepherd et al, 2005) was 2.2 months. For the same compound, the ORR ([3]; BR.21 study, 95% CI: 6.4–12%, ref Shepherd et al, 2005) was 8.9%, the Median survival ([3]; erlotinib-treated patients who did not experience skin toxicity) was 3 months and the Median survival ([3]; erlotinib-treated patients with grade 1 skin toxicity) was 7 months. The Median survival ([3]; erlotinib-treated patients with grade 2/3 skin toxicity) was 11 months and the “Patients who developed NCI CTC grade 2 or 3 rash” value [4] was about 30%.
